As a reminder, the EC50 is the concentration at which the effect is half-maximal. As a reminder, the AC50 is the midpoint of the concentration-response curve, whichever way the signal moves.

SMILES strings stand for the structures. Active and inactive are the calls of the source.

Assay [1] can be described thus: M. tuberculosis growth inhibition in 7H9, dose response, 7H9 media, purified and synthesized samples, set 3 (AID 504646). Format: functional.
A short description of assay [2]: A High Throughput Confirmatory Assay used to Identify Novel Compounds that Inhibit Mycobacterium Tuberculosis in the absence of Glycerol using Purified and Synthesized Compounds (3). Format: functional.
Assay [3] can be described thus: luciferase reporter signal suppression in cells – H4 neuroglioma cells, luminescence, dose response (AID 1990). Format: functional, cell-based.
The nature of assay [4]: Luminescence Cell-Based Dose Response HTS to Identify Inhibitors of 5'UTR Stem-Loop Driven Prion Protein mRNA Translation in H4 Neuroglioblastoma Cells. [Related pubchem assays: 1827 (Project Summary), 1813 (Primary HTS)]. Format: functional.
The nature of assay [5]: alpha-synuclein stem-loop luciferase translation blockers – H4 neuroglioma cells, luminescence, confirmation (AID 1988). The class given is functional, cell-based.
In assay [6] the target is T1, Aryl hydrocarbon receptor (Homo sapiens, UniProt P35869).
T1 sequence (P35869 whole entry): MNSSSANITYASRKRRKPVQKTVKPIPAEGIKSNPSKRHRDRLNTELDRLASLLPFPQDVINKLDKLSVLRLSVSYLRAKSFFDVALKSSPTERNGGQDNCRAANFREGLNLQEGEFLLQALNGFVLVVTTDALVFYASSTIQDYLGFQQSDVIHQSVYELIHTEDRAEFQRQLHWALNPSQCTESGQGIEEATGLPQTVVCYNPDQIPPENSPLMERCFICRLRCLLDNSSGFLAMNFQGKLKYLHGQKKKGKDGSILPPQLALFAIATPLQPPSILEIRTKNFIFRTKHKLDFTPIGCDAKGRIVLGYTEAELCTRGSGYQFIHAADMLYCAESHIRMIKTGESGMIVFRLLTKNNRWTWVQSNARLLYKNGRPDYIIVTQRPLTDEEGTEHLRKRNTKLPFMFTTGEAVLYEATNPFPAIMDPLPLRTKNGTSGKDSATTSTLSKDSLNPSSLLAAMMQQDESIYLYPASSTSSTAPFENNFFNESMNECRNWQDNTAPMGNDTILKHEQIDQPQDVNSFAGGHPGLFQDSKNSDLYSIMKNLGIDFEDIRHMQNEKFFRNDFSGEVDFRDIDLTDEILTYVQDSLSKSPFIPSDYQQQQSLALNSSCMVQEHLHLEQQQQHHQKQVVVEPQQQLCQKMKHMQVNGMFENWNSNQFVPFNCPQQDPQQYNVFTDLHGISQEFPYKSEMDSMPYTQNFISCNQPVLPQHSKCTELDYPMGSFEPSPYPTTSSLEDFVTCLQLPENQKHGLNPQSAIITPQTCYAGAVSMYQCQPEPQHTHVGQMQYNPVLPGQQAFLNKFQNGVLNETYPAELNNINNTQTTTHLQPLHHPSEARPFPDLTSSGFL
The experiment in a line: Luminescence-based cell-based high throughput dose response assay for activators of the Aryl Hydrocarbon Receptor (AHR). [Related pubchem assays: 2796 (Primary screen (AHR activators in singlicate)), 2845 (Confirmation screen (AHR activators in triplicate)), 434939 (Counterscreen (PXR activators in triplicate)), 2804 (Summary (AHR activators))]. The class given is ADME. In general terms: Counterscreens check selectivity or assay interference.

The target in assay [7] is Glycogen synthase kinase-3 alpha (Homo sapiens, UniProt P49840). The experiment in a line: Inhibition of Human GSK-3 alpha Activity Measured in Biochemical System Using Microfluidics - 2063-06_Inhibitor_Dose_DryPowder_Activity_Set2. [Related pubchem assays (depositor defined):AID2709].
Assay [8] has as its target Glycogen synthase kinase-3 beta (Homo sapiens, UniProt P49841). The experiment in a line: Inhibition of Human GSK-3 beta Activity Measured in Biochemical System Using Microfluidics - 2063-05_Inhibitor_Dose_DryPowder_Activity_Set2. [Related pubchem assays (depositor defined):AID2709].
The target in assay [9] is Cyclin-dependent kinase 5/CDK5 activator 1 (Homo sapiens, UniProt Q00535). Briefly: human CDK5 activity blockade – biochemical, microfluidic mobility shift, dry powder, selectivity assay for GSK-3 alpha inhibitor project, dose response (AID 588430).
The target of assay [10] is T2, Sentrin-specific protease 8 (Homo sapiens, UniProt Q96LD8).
T2 sequence (Q96LD8 whole entry): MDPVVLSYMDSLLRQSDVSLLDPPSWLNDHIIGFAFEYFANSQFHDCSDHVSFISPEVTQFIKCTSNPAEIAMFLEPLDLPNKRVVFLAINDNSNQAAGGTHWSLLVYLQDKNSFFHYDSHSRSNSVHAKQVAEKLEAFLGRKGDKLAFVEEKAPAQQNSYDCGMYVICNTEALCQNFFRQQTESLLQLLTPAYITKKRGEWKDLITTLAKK
Briefly: inhibition of human SENP8 cleavage activity – biochemical, luminescence, SAR follow-up (AID 504501). The class given is functional.

The next assay deals with T3, Caspase-3 (Homo sapiens, UniProt P42574).
T3 sequence (P42574 whole entry): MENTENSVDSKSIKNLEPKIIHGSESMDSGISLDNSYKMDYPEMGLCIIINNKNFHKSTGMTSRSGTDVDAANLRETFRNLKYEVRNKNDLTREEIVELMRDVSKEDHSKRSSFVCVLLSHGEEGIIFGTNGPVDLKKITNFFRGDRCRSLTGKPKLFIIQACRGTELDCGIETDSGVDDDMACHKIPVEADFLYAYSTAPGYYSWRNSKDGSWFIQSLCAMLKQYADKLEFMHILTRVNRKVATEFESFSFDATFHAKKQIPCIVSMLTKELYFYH
Briefly: SAR Analysis of small molecule inhibitors of Sentrin-specific proteases (SENPs) using a Caspase-3 Selectivity assay. [Related pubchem assays (depositor defined):AID2540, AID2599, AID434973, AID489001]. The class given is functional.

Assay [11] concerns the target T4, Sentrin-specific protease 6 (Homo sapiens, UniProt Q9GZR1).
T4 sequence (Q9GZR1 whole entry): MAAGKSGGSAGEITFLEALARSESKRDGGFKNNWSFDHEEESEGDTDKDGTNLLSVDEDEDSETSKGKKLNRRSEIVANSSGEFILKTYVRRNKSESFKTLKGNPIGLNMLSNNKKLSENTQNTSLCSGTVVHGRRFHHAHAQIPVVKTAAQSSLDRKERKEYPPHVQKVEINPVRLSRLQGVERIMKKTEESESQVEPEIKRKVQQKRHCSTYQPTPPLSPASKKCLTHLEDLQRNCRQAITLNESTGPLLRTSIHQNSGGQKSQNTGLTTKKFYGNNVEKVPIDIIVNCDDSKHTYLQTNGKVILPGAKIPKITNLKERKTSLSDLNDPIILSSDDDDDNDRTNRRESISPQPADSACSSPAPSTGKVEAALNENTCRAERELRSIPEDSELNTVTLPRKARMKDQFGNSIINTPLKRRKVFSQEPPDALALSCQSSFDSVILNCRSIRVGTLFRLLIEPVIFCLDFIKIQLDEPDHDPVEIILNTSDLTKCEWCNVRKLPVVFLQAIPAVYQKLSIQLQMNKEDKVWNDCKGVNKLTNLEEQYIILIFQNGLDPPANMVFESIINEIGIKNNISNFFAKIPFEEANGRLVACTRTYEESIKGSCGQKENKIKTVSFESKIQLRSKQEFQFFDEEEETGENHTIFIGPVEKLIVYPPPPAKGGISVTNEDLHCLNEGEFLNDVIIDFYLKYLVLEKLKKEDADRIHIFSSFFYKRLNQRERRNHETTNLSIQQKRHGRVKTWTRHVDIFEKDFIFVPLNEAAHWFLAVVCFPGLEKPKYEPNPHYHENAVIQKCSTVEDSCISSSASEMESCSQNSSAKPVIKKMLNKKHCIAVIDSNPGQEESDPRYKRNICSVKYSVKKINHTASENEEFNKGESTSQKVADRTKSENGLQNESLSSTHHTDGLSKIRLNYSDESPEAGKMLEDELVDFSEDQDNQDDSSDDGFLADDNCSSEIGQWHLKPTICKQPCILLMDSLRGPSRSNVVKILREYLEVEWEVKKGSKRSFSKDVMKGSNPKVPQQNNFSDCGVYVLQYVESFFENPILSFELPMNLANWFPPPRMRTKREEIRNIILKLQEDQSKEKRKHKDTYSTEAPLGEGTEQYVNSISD
Briefly: SAR Analysis of small molecule inhibitors of Sentrin-specific protease 6 (SENP6) using a Luminescent assay. [Related pubchem assays (depositor defined):AID2582, AID2599]. Format: functional.

In assay [12] the target is T5, Sentrin-specific protease 7 (Homo sapiens, UniProt Q9BQF6).
T5 sequence (Q9BQF6 whole entry): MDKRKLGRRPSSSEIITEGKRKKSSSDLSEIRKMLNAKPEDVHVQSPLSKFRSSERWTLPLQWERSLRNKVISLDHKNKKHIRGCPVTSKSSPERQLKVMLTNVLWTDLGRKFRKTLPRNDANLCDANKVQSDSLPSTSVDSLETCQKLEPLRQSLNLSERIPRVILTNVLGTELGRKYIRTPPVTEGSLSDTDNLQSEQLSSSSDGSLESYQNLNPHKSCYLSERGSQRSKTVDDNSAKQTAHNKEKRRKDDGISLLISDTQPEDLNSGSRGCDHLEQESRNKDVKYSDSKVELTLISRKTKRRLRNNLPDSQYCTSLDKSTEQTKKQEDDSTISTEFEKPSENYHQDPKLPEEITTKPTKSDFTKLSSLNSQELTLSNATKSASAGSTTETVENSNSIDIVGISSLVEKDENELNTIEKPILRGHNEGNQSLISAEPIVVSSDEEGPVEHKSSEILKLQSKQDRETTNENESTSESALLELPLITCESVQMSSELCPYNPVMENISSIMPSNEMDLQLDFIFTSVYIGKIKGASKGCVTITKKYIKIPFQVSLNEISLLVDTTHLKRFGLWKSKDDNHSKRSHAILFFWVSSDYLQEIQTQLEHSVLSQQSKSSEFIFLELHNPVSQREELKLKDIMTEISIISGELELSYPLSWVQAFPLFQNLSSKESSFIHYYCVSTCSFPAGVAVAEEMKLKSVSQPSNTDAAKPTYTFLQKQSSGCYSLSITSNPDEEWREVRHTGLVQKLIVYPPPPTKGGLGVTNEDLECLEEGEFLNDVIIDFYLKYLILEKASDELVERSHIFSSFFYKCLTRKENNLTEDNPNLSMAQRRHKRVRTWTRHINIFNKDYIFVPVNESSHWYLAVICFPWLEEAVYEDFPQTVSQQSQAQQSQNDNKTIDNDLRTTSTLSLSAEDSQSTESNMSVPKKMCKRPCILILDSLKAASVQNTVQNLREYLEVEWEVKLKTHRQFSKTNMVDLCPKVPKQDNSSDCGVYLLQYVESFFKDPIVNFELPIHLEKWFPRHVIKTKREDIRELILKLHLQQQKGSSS
Briefly: inhibition of human SENP7 cleavage activity – biochemical, luminescence, SAR follow-up (AID 504497). The class given is functional.

Assay [13] concerns the target DNA dC->dU-editing enzyme APOBEC-3G (Homo sapiens, UniProt Q9HC16). Briefly: inhibition of APOBEC3G ssDNA deamination – biochemical, fluorescence, single-stranded DNA substrate, SAR follow-up (AID 602136). Conditions: read-out: IC50_Mean. Format: functional.
The target in assay [14] is DNA dC->dU-editing enzyme APOBEC-3A (Homo sapiens, UniProt P31941). Briefly: SAR analysis of small molecule inhibitors of APOBEC3A DNA Deaminase via a fluorescence-based single-stranded DNA deaminase assay. The class given is functional. Conditions: read-out: IC50_Mean.
Assay [15] addresses T6, Melanin-concentrating hormone receptor 1 (Homo sapiens, UniProt Q99705). Briefly: Late-stage fluorescence-based counterscreen for antagonists of the G-protein coupled receptor 7 (GPR7): cell-based dose response assay to identify antagonists of the melanin-concentrating hormone receptor 1 (MCHR1) Set 6. Format: functional.
Assay [16] addresses T7, Neuropeptides B/W receptor type 1 (Homo sapiens, UniProt P48145).
T7 sequence (P48145 whole entry): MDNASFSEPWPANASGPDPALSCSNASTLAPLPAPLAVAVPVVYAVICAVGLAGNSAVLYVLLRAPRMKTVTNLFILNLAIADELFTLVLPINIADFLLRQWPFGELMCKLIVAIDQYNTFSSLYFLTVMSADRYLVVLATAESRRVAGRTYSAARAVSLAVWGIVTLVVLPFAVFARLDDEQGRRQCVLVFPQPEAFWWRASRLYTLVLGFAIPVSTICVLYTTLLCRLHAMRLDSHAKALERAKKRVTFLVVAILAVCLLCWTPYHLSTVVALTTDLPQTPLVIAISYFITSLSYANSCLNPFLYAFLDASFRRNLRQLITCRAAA
The experiment in a line: human NPBW1 receptor blockade, IC50 – cell-based, fluorescence, dose response, set 6, late-stage follow-up (AID 588583). The class given is functional.

Assay [17] has as its target T7, Neuropeptides B/W receptor type 1. Briefly: human NPBW1 receptor blockade, IC50 – cell-based, fluorescence, dose response, set 5, late-stage follow-up (AID 588566). Format: functional.
For assay [18], the target named is T6, Melanin-concentrating hormone receptor 1. Briefly: Late-stage fluorescence-based counterscreen for antagonists of the G-protein coupled receptor 7 (GPR7): cell-based dose response assay to identify antagonists of the melanin-concentrating hormone receptor 1 (MCHR1) Set 5. The class given is functional.

T6 sequence (Q99705 whole entry): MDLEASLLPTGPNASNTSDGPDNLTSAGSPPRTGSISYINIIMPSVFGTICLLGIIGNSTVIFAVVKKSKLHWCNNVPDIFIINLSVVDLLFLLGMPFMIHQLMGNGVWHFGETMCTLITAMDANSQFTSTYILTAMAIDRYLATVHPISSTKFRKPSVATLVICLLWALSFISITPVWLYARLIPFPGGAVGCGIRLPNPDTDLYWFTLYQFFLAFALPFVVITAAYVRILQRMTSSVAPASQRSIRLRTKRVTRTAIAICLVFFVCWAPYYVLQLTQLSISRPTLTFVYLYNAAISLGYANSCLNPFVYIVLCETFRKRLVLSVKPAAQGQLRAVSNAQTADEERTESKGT
Sequence of Glycogen synthase kinase-3 beta (P49841 whole entry): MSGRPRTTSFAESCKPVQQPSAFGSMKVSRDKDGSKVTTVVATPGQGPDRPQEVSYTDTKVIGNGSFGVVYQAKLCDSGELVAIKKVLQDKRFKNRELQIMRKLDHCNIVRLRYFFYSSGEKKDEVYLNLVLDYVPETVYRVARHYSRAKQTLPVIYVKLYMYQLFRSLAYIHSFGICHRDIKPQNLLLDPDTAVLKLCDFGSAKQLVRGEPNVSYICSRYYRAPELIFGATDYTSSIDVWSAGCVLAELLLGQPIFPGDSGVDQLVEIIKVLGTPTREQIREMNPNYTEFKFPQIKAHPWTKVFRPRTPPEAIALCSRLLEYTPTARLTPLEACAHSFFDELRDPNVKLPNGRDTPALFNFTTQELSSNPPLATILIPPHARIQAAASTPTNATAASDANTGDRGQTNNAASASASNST
Sequence of Glycogen synthase kinase-3 alpha (P49840 whole entry): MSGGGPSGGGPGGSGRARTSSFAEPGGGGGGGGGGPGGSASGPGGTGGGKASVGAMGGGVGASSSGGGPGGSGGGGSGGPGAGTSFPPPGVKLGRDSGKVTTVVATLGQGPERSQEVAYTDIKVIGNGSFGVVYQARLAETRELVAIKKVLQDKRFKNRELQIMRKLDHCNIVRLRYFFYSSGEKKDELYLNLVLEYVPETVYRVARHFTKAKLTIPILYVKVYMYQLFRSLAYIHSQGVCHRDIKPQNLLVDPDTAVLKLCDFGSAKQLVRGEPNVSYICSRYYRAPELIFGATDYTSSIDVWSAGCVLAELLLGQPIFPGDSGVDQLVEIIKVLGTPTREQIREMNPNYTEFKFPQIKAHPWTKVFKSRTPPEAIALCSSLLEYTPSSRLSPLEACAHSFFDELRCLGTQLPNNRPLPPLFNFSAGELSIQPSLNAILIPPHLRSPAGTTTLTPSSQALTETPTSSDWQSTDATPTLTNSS
Sequence of Cyclin-dependent kinase 5/CDK5 activator 1 (Q00535 whole entry): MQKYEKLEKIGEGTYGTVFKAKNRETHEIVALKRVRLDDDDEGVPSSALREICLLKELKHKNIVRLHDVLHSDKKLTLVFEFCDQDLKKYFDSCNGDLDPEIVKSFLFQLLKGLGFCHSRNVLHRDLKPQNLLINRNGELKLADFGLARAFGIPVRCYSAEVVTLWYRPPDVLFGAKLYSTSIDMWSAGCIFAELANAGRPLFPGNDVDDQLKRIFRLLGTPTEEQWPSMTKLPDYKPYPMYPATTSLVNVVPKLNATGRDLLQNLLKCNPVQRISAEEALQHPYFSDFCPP
Sequence of Cyclin-dependent kinase 5/CDK5 activator 1 (Q15078 whole entry, further chain): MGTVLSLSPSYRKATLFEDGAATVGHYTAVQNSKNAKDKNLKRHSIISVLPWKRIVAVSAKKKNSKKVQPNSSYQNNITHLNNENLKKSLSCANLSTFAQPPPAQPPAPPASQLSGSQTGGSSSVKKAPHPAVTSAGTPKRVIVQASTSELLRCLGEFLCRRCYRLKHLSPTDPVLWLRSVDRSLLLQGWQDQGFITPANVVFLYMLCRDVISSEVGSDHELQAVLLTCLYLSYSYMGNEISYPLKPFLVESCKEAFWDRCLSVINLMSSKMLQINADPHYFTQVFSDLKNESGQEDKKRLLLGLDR
Sequence of DNA dC->dU-editing enzyme APOBEC-3A (P31941 whole entry): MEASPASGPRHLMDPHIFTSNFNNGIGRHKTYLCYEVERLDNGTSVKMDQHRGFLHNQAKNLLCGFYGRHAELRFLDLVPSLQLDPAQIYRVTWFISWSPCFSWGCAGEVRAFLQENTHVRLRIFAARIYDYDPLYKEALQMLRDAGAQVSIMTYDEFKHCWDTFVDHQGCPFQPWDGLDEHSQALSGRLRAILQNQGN
Sequence of DNA dC->dU-editing enzyme APOBEC-3G (Q9HC16 whole entry): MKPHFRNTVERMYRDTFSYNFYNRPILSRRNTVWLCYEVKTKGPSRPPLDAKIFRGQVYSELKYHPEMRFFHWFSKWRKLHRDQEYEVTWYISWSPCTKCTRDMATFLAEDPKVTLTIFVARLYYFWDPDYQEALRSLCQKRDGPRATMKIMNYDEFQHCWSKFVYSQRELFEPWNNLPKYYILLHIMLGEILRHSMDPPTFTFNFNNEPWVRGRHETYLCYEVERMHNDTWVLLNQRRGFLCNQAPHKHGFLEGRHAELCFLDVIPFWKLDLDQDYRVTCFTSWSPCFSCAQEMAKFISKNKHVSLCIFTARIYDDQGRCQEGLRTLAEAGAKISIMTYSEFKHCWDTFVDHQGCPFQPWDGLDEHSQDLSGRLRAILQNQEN

Regarding `O=C(c1ccc(CNc2c(N3CCCC3)c(=O)c2=O)cc1)N1CCN(C2CCCCC2)CC1`, the IC50 in assay [1] and in assay [2] was > 25 µM (active) each time.

With `COc1ccccc1Nc1nc(NCCO)nc(N)c1[N+](=O)[O-]`, the concentration for a half-maximal effect (EC50) in [3] is 10.9 µM (active); in [4], 0.118 µM (active); in assay [5] it was 11.3 µM (active); in assay [6] it was 1.2 µM (active). Moreover, the figures for the concentration at half-maximal activity (AC50) in [7], in [8] and in assay [9] were 0.276 µM (active), 0.134 µM (active) and 6.14 µM (active), respectively.

Consider `CCOc1ccc2nc(NC(=O)c3nc(SC(C)C)ncc3Cl)sc2c1`, for which the IC50 (in [10]; at Caspase-3; in [11]; in [12]) was > 99 µM (inactive) in each case.

Consider `COc1ccc2c(Cl)c(-c3nnc4n3CCC4)sc2c1`, for which the IC50 in assay [13] and in assay [14] was > 99 µM (inactive) throughout.

Consider `Cc1ccc(C)c(C(C#N)c2c(Cl)cnn(Cc3cccc4ccccc34)c2=O)c1` (centres undefined), for which the IC50 in assay [15] and in [16] was 3.14 µM (active) throughout.

In the case of `COc1ccc(Oc2c(Cl)cnn(Cc3ccc4c(c3)C(=O)c3ccccc3C4=O)c2=O)cc1`, the IC50 in assay [17] and in assay [18] was > 20 µM (inactive) each time.
